{"source": "paper PMC12259270", "about": "“Sensory neuron–expressed FGF13 controls nociceptive signaling in diabetic neuropathy models” (The Journal of Clinical Investigation, 2025)", "target": "T1, human Nav1.7 (Homo sapiens, UniProt Q15858)", "T1 construct": "expressed in transfected cells; host or cells: HEK293 stably expressing human Nav1.7", "T1 sequence (Q92913 1-192 partner limits assumed)": "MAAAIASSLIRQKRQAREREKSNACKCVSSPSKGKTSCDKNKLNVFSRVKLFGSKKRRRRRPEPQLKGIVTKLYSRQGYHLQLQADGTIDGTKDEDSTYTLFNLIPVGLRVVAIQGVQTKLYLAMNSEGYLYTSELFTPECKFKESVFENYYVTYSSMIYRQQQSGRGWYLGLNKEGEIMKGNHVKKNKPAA", "T1 sequence (Q15858 1-1977 isoform Q15858-3)": "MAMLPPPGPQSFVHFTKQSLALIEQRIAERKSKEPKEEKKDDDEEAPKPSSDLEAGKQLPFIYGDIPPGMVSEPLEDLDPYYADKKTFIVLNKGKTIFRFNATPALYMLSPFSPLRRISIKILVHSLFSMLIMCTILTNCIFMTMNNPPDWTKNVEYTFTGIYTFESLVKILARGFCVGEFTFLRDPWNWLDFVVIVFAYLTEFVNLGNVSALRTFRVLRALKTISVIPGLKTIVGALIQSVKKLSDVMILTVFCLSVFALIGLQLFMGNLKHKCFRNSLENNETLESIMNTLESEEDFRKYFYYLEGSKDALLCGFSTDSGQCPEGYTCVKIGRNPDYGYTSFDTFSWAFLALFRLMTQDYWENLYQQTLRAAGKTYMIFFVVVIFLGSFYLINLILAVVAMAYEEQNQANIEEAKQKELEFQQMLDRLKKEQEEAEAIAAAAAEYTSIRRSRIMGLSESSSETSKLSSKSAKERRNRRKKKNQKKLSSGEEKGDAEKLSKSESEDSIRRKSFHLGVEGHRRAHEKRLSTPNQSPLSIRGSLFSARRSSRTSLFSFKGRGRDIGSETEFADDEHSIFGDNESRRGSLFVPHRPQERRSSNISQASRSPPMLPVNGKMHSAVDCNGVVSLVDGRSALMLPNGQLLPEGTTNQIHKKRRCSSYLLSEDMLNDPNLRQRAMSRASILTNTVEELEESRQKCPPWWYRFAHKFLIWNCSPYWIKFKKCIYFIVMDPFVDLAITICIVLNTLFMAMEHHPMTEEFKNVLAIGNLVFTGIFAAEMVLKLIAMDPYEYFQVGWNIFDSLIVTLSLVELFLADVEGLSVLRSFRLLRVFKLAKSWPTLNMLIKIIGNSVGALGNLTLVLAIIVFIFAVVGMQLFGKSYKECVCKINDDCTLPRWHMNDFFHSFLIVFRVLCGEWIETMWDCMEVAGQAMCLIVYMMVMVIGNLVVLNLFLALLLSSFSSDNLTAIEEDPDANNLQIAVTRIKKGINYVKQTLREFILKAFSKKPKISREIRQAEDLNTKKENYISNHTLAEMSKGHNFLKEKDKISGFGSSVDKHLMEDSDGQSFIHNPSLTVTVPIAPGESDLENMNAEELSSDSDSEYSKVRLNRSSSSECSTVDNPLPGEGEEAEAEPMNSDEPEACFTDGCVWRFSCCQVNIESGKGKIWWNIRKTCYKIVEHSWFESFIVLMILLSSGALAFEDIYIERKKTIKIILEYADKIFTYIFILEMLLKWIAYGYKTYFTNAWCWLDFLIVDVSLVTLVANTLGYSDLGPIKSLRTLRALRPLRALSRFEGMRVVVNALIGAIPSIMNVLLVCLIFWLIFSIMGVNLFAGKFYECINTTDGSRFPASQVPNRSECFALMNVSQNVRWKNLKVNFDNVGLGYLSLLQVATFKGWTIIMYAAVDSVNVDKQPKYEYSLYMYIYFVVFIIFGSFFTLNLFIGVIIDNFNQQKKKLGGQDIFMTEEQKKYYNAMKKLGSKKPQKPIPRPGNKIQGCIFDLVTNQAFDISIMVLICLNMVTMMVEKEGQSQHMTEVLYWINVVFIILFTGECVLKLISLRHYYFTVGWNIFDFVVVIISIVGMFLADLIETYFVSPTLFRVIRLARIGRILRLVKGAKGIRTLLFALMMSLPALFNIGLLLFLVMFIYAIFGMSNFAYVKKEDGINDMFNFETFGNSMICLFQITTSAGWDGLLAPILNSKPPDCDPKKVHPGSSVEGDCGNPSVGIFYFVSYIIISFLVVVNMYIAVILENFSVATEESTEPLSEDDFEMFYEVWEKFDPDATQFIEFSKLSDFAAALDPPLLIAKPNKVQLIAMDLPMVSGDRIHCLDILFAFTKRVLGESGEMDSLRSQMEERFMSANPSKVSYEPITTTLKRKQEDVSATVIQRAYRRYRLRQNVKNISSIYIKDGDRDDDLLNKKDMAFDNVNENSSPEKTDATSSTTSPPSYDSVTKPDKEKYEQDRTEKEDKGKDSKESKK", "test": "Whole-cell patch-clamp, HEK293 cells stably expressing human Nav1.7 with GFP or FGF13-GFP", "format": "cell-based", "conditions": "for Time constant of repriming, Mean: Fig 1L, PW164; for Activation / Long-term inactivation, 2nd Pulse / Long-term inactivation, 3rd Pulse / Long-term inactivation, 4th Pulse / Peak Density / Steady state inactivation / Tau (τ): HEK293 Nav1.7", "procedure": "Whole-cell patch clamp electrophysiology\nHEK293-Nav1.7 cells, HEK293 stably expressing human Nav1.6 (HEK-Nav1.6), HEK293 stably expressing human Nav1.5 (HEK-Nav1.5), human hIPSC-derived sensory neurons (RealDRGTM from Anatomic Incorporated 1020F1-1M) and donor-derived DRG neurons were plated at low density on glass coverslips and processed for whole-cell patch clamp electrophysiology in voltage-clamp and/or current clamp mode. Whole-cell patch electrophysiological experiments were conducted following previously published studies (26). Current densities were obtained by dividing INa amplitude by membrane capacitance. Current –voltage relationships were generated by plotting current density as a function of the […]. Conductance (G Na) was calculated by the […]\nwhere INa is the current amplitude at voltage Vm, and Erev is the Na+ reversal potential.\nActivation curves were derived by plotting normalized GNa as a function of test potential and fitted using […]\nWhere GNa,Max is the maximum conductance, Va is the membrane potential of half-maximal activation, Em is the membrane voltage and k is the slope factor. For steady -state inactivation, normalized current amplitude (INa/INa,Max) at the test potential was plotted as a function of prepulse potential (Vm) and fitted using the […]\nWhere Vh is the potential of half-maximal inactivation, E m is the membrane voltage, and k is the slope factor.\nTransient INa inactivation decay was estimated with the standard exponential equation. Inactivation time constant (tau, τ) was fitted with the following equation: […]\nwhere I(t) is the amplitude of the current at time t and Iss is the steady-state current during a single voltage-step.\nThe goodness of fitting was determined by correlation coefficient (R), and the cutoff of R was set at 0.85. To observe effects on long-term inactivation (LTI), a four-step protocol was employed during which cells were subjected to four 0 mV, 20 ms depolarization pulses separated by −90 mV, 40 ms recovery intervals. To control for various cell sizes, the current densities were calculated by dividing INa peak current amplitude/membrane capacitance (Cm). To represent the fraction of channels entering into LTI, the peak INa observed during depolarization cycles 2-4 was normalized to the peak INa observed during depolarization cycle 1 (INa/INa,Cycle 1) and plotted as a function of the depolarization cycle.\nThe cumulative (frequency-dependent) use-dependency was determined by applying 20 pulses with a depolarization to −10 mV (50 ms duration) and 50 ms recovery intervals with a train of 20 pulses at 10 Hz from a holding potential at -70 mV. The current pulses were normalized to the first reco rded pulse and the currents at the 2nd to 20th pulses were compared. The same train was used to record use-dependency at various frequencies […]\nThe rate of recovery from inactivation was recorded at -80 mV with a standard repriming voltage protocol.\nThe cells were prepulsed to -20 mV for 20 ms to inactivate all currents, then driven back to the recovery potential (Vrec) for increasing recovery durations before the test pulse to 0 mV. The maximum pulse rate was 0.5 Hz. The […]\nfollows previous publications (16). The time constants were estimated from single exponential decay to time courses measured at recovery potentials ranging from -140 to -60 mV with the protocol as mentioned above.\nElectrophysiological Recordings\nHEK293 cells: Electrophysiological recordings in HEK293 stably expressing Nav1.7 (HEK-Nav1.7), Nav1.5 (HEK-Nav1.5) or Nav1.6 (HEK-Nav1.6) were performed at room temperature using a MultiClamp 700B or an Axopatch 200B amplifier (Molecular Devices) after incubating coverslips for 60 minutes either with 0.1% DMSO or 50 μM PW164 or ZL192 in the extracellular solution. The composition of recording solutions consisted of the […]\nfollowing salts: extracellular (mM): 140 NaCl, 3 KCl, 1 MgCl2, 1 CaCl2, 10 HEPES, 10 glucose, pH 7.3; […]\nintracellular (mM): 130 CH3O3 SCs, 1 EGTA, 10 NaCl, 10 HEPES, pH 7.3. […]", "note": "Residues, ends and D or L forms follow the SMILES beside them. *: point of attachment. Cbz = O=C(OCc1ccccc1)*; OtBu = CC(C)(C)O*"}
{"smiles": "COC(=O)[C@@H](NC(=O)[C@H](CCC(=O)OC(C)(C)C)NC(=O)[C@H](CC(C)C)NC(=O)[C@@H]1CCCN1C(=O)OCc1ccccc1)C(C)C", "note": "[PW164] (Cbz-PLE(OtBu)V-OMe)", "values": [{"measurement": "Time constant of repriming, Mean", "setting": "Nav1.7 + FGF13-GFP, recovery potential -100", "result": 42.57, "unit": "ms"}, {"measurement": "Time constant of repriming, Mean", "setting": "Nav1.7 + FGF13-GFP, recovery potential -120", "result": 33.57, "unit": "ms"}, {"measurement": "Time constant of repriming, Mean", "setting": "Nav1.7 + FGF13-GFP, recovery potential -140", "result": 16.96, "unit": "ms"}, {"measurement": "Time constant of repriming, Mean", "setting": "Nav1.7 + GFP, recovery potential -60", "result": 57.89, "unit": "ms"}, {"measurement": "Time constant of repriming, Mean", "setting": "Nav1.7 + GFP, recovery potential -70", "result": 65.42, "unit": "ms"}, {"measurement": "Time constant of repriming, Mean", "setting": "Nav1.7 + GFP, recovery potential -80", "result": 71.67, "unit": "ms"}, {"measurement": "Time constant of repriming, Mean", "setting": "Nav1.7 + GFP, recovery potential -90", "result": 61.78, "unit": "ms"}, {"measurement": "Time constant of repriming, Mean", "setting": "Nav1.7 + GFP, recovery potential -100", "result": 47.69, "unit": "ms"}, {"measurement": "Time constant of repriming, Mean", "setting": "Nav1.7 + GFP, recovery potential -120", "result": 34.63, "unit": "ms"}, {"measurement": "Time constant of repriming, Mean", "setting": "Nav1.7 + GFP, recovery potential -140", "result": 16.6, "unit": "ms"}, {"measurement": "Activation", "setting": "FGF13-GFP + PW164 50 μM", "result": "−19.7 ± 0.9", "unit": "mV"}, {"measurement": "Long-term inactivation, 2nd Pulse", "setting": "FGF13-GFP + PW164 50 μM", "result": "−69.72 ± 5.21", "unit": "% maximal Na+ current"}, {"measurement": "Long-term inactivation, 3rd Pulse", "setting": "FGF13-GFP + PW164 50 μM", "result": "−60.33 ± 5.60", "unit": "% maximal Na+ current"}, {"measurement": "Long-term inactivation, 4th Pulse", "setting": "FGF13-GFP + PW164 50 μM", "result": "−59.34 ± 4.68", "unit": "% maximal Na+ current"}, {"measurement": "Peak Density", "setting": "FGF13-GFP + PW164 50 μM", "result": "−26.7 ± 3.6", "unit": "pA/pF"}, {"measurement": "Steady state inactivation", "setting": "FGF13-GFP + PW164 50 μM", "result": "−64.7 ± 2.1", "unit": "mV"}, {"measurement": "Tau (τ)", "setting": "FGF13-GFP + PW164 50 μM", "result": "0.80 ± 0.03", "unit": "ms"}, {"measurement": "Activation", "setting": "FGF13A GFP (FGF13-1a) + PW164", "result": "−26.91 ± 1.25", "unit": "mV"}, {"measurement": "Peak Density", "setting": "FGF13A GFP (FGF13-1a) + PW164", "result": "−109.1 ± 11.7", "unit": "pA/pF"}, {"measurement": "Steady state inactivation", "setting": "FGF13A GFP (FGF13-1a) + PW164", "result": "−63.11 ± 2.14", "unit": "mV"}, {"measurement": "Tau (τ)", "setting": "FGF13A GFP (FGF13-1a) + PW164", "result": "1.41 ± 0.06", "unit": "ms"}, {"measurement": "Long-term inactivation, 2nd Pulse", "setting": "FGF13A-GFP (FGF13-1a) + PW164", "result": "−47.28 ± 4.68", "unit": "% maximal Na+ current"}, {"measurement": "Long-term inactivation, 3rd Pulse", "setting": "FGF13A-GFP (FGF13-1a) + PW164", "result": "−35.27 ± 3.04", "unit": "% maximal Na+ current"}, {"measurement": "Long-term inactivation, 4th Pulse", "setting": "FGF13A-GFP (FGF13-1a) + PW164", "result": "−29.22 ± 4.16", "unit": "% maximal Na+ current"}, {"measurement": "Activation", "setting": "GFP + PW164 50 μM", "result": "−26.1 ± 0.4", "unit": "mV"}, {"measurement": "Long-term inactivation, 2nd Pulse", "setting": "GFP + PW164 50 μM", "result": "−67.94 ± 3.77", "unit": "% maximal Na+ current"}, {"measurement": "Long-term inactivation, 3rd Pulse", "setting": "GFP + PW164 50 μM", "result": "−62.35 ± 5.35", "unit": "% maximal Na+ current"}, {"measurement": "Long-term inactivation, 4th Pulse", "setting": "GFP + PW164 50 μM", "result": "−60.93 ± 3.90", "unit": "% maximal Na+ current"}, {"measurement": "Peak Density", "setting": "GFP + PW164 50 μM", "result": "−69.2 ± 7.5", "unit": "pA/pF"}, {"measurement": "Steady state inactivation", "setting": "GFP + PW164 50 μM", "result": "−83.5 ± 1.7", "unit": "mV"}, {"measurement": "Tau (τ)", "setting": "GFP + PW164 50 μM", "result": "1.48 ± 0.25", "unit": "ms"}, {"measurement": "IC50", "setting": "HEK-Nav1.7 coexpressing FGF13-GFP, Fig 1F, read-out: IC50, reversal of FGF13-induced increase in INa density", "result": "6.74 ± 0.5", "unit": "µM"}, {"measurement": "Time constant (ms), Mean (Figure 4J)", "setting": "Nav1.7 + FGF13-GFP, at -60, N 5", "result": 36.71, "unit": "ms"}, {"measurement": "Time constant (ms), Mean (Figure 4J)", "setting": "Nav1.7 + FGF13-GFP, at -70, N 5", "result": 42.79, "unit": "ms"}, {"measurement": "Time constant (ms), Mean (Figure 4J)", "setting": "Nav1.7 + FGF13-GFP, at -80, N 5", "result": 44.71, "unit": "ms"}, {"measurement": "Time constant (ms), Mean (Figure 4J)", "setting": "Nav1.7 + FGF13-GFP, at -90, N 5", "result": 37.77, "unit": "ms"}, {"measurement": "Time constant (ms), Mean (Figure 4J)", "setting": "Nav1.7 + FGF13-GFP, at -100, N 5", "result": 28.49, "unit": "ms"}, {"measurement": "Time constant (ms), Mean (Figure 4J)", "setting": "Nav1.7 + FGF13-GFP, at -120, N 5", "result": 23.55, "unit": "ms"}, {"measurement": "Time constant (ms), Mean (Figure 4J)", "setting": "Nav1.7 + FGF13-GFP, at -140, N 5", "result": 14.96, "unit": "ms"}, {"measurement": "Time constant (ms), Mean (Figure 4J)", "setting": "Nav1.7 + GFP, at -60, N 6", "result": 50.23, "unit": "ms"}, {"measurement": "Time constant (ms), Mean (Figure 4J)", "setting": "Nav1.7 + GFP, at -70, N 6", "result": 52.23, "unit": "ms"}, {"measurement": "Time constant (ms), Mean (Figure 4J)", "setting": "Nav1.7 + GFP, at -80, N 6", "result": 56.52, "unit": "ms"}, {"measurement": "Time constant (ms), Mean (Figure 4J)", "setting": "Nav1.7 + GFP, at -90, N 6", "result": 45.93, "unit": "ms"}, {"measurement": "Time constant (ms), Mean (Figure 4J)", "setting": "Nav1.7 + GFP, at -100, N 6", "result": 35.06, "unit": "ms"}, {"measurement": "Time constant (ms), Mean (Figure 4J)", "setting": "Nav1.7 + GFP, at -120, N 6", "result": 27.11, "unit": "ms"}, {"measurement": "Time constant (ms), Mean (Figure 4J)", "setting": "Nav1.7 + GFP, at -140, N 6", "result": 15.6, "unit": "ms"}, {"measurement": "activity on Nav1.7 currents", "setting": "Nav1.7 cells coexpressing FGF13-1a-GFP (FGF13S)", "result": "inactive"}]}
